According to patent US20170304288A1, “Formulations of Methionine Aminopeptidase Inhibitors for Treating Infectious Diseases” (Texas Southern University, priority 2013, published 2017):
Converted amounts (≈) assume the structure as drawn. Where two headings read alike, the source gives them in different places. Marks after values point to notes of the source that are not given here.

Key:
E. faecalis OG1RF [1] = test: Bacterial viability (CFU) in infected nematodes after treatment; format: in vivo, Enterococcus faecalis; conditions: 4×10^−11 μg/mL, after three days of treatment
Method: Young Adult nematodes sequentially preinfected with E. faecalis for 5 h. The nematodes were washed three times with sterile […] and collected by centrifugation between each wash and then transferred into tubes. […] The nematodes were washed twice in 25 mM Tetramisole and transferred to 6 well plates containing 20% BHI and the inhibitors to recover for 48 h and 72 h. After recovery time elapsed, nematodes were then transferred into an eppendorf tube containing 200 μl of M9 and ground using motorized pestle for 1 min and tube was briefly vortexed.

[2] = Solubility in various solvents, shaker method; format: physicochemical; conditions: for solubility at 72 h: thermodynamic from solid, read-out: Mean Solubility ± SD
Method: Assessment of the solubility of compound 5 in various solvents is important in developing suitable formulations for preclinical and clinical studies. The solubility of compound 5 in water, ethanol, poly ethylene glycol 400, propylene glycol monocapryrate type I (PGMC), propylene glycol monocapryrate type II (CAPYROL 90), dimethyl sulfoxide (DMSO), dimethyl acetamide (DMA), TWEEN 80, TWEEN 20, paraffin oil, soybean oil, and olive oil were determined by the shaker method. Briefly, excess amount of compound 5 was added to each of the selected solvents in a scintillation vial and placed on a reciprocating shaker to shake at room temperature for 72 h. The samples were centrifuged at 14,000 rpm for 10 min and subsequently filtered through a 0.22 μm filtration unit; the resulting filtrate was analyzed by HPLC-UV to determine the amount of compound 5 dissolved in the solvents. The experiment was conducted in triplicate.

[3] = Octanol-water partition co-efficient, shaker method; format: physicochemical; conditions: read-out: experimental M log P
Method: The octanol—water partition co-efficient (log P) of compound 5, which measures its hydrophilicity (“water-loving” property) or hydrophobicity (“water-repelling” property), was evaluated using the shaker method. […] This indicate potential water solubility challenges especially for oral administration.

[4] = Pharmacokinetic study in male Sprague Dawley rats; format: in vivo; conditions: rat; for Cmax / clearance / bioavailability / half-life / Vd: male, Sprague Dawley, plasma; for bioavailability: read-out: Fabs (absolute bioavailability); for Vd: read-out: VD (volume of distribution)
From the text: Pharmacokinetic evaluation elucidates the fate of compound 5 in living systems. The pharmacokinetic study of compound 5 was also a means to verify the applicability of the LC-MS/MS assay method and the formulations. An adult male Sprague Dawley rat model was the preferred biological system for this experiment based on the similarity to humans in metabolism and minimal interference of hormones with metabolism. Briefly, male Sprague Dawley rats (n=4 for IV group, n=3 for subcutaneous and oral groups each, body weight: 300-350 g) were cannulated through the jugular vein under anesthesia (using a cocktail of ketamine: acepromazine: xylazine at a ratio of 50: 3.3: 3.3 mg/kg). On the following day, the optimal IV co-solvent formulation was diluted five times with normal saline to 1 mg/mL. The formulation for subcutaneous and oral administration was diluted with equal amount of normal saline to 3.75 mg/mL. Each rat was administered a 2 mg/kg IV bolus dose, 10 mg/kg subcutaneous dose or 20 mg/kg oral dose of compound 5. Heparinized blood samples were withdrawn from each rat at 5, 10, 15, 30 mins, 1, 2, 4, 6, 8, 12, 24, 48, 72, 96, 144 h after injection. The blood samples were centrifuged at 14,000 rpm for 6 min and the supernatant plasma obtained and stored at −80° C. until LC-MS/MS analysis for the concentration of compound 5. Urine samples were also collected at 0, 4, 8, 12, and 24 h. The plasma and urine samples were analyzed (within 7 days) using the developed LC/MS/MS method to determine the concentration of compound 5. FIG. 19A-D show plots of the plasma concentration of compound 5 against time.
The pharmacokinetic parameters for each rat were determined with Phoenix WinNonlin 6.3 software (Pharsight Corporation, Mountain View, Calif., USA) a non-compartmental analysis and a two compartment, which best described the fit for the IV bolus administration of compound 5, based on the observed and predicted fits of the plasma concentration versus time plot, the reduction in the sums of squares, and the Akaike's information criterion (AIC) for comparing compartmental models (5).
The weighting scheme of concentration^−2 (Y^−2) was used to determine the model that best fits the individual profiles. […] The plasma concentration -time profiling following 20 mg/Kg oral and 10 mg/kg subcutaneous doses of compound 5 is shown in FIG. 22C.

plasma protein = test: Plasma protein binding in rat plasma
E. faecalis V583 [5] = test: Liquid-based C. elegans infection model, survival
[6] = tested on: Pseudomonas aeruginosa (PA14); test: Screening against P. aeruginosa in LB and SK media
E. faecalis OG1RF [7] = test: Assay of E. faecalis inhibition (MIC) in BHI culture; conditions: Enterococcus faecalis, read-out: Minimum Inhibitory Concentration MIC30 OG1RF
E. faecalis V583 [8] = test: as above
[9] = iv, 2 mg/kg, Intravenous (Dose: 2 mg/kg), non-compartmental analysis
[10] = iv, 2 mg/kg, Intravenous (Dose: 2 mg/kg), two compartment model
[11] = po, 20 mg/kg, Oral (Dose: 20 mg/kg), non-compartmental analysis
[12] = sc, 10 mg/kg, Subcutaneous (Dose: 10 mg/kg), non-compartmental analysis
[13] = Intravenous (Dose: 2 mg/kg), two compartment model
[14] = Oral (Dose: 20 mg/kg), non-compartmental analysis
[15] = Oral (Dose: 20 mg/kg), two compartment model
[16] = Subcutaneous (Dose: 10 mg/kg), non-compartmental analysis
[17] = Subcutaneous (Dose: 10 mg/kg), two compartment model

Oc1c(Br)cc(Cl)c2cccnc12 [Compound 5, 7-bromo-5-chloroquinolin-8-ol]
drop in CFU (E. faecalis OG1RF [1]): 50 fold
Mean Solubility ± SD ([2]; Dimethyl acetamide): >80 mg/mL
solubility at 72 h ([2]; dimethyl acetamide, organic solvent or mixture): > 80 mg/mL
solubility at 72 h ([2]; water): 0.07 mg/mL (≈ 271 µM)
logP [3]: 3.03 ± 0.04
Cmax [4, 9]: 2560 ± 480 ng/mL
clearance ([4]; iv, 2 mg/kg, Intravenous (Dose: 2 mg/kg), non-compartmental analysis, read-out: Cl- (total body clearance) (converted)): 1.67 mL/min/kg
bioavailability [4, 9]: 100%
half-life ([4]; iv, 2 mg/kg, Intravenous (Dose: 2 mg/kg), non-compartmental analysis, read-out: T1/2 (elimination half-life) (converted)): 176 ± 30.5 h
Vd [4, 9]: 24.6 ± 1.19 L/kg
Cmax [4, 10]: 2600 ± 560 ng/mL
clearance ([4]; iv, 2 mg/kg, Intravenous (Dose: 2 mg/kg), two compartment model, read-out: Cl (total body clearance) (converted)): 2.17 mL/min/kg
half-life ([4]; iv, 2 mg/kg, Intravenous (Dose: 2 mg/kg), two compartment model, read-out: T1/2α (distribution half-life) (converted)): 0.19 ± 0.02 h
half-life ([4]; iv, 2 mg/kg, Intravenous (Dose: 2 mg/kg), two compartment model, read-out: T1/2β (elimination half-life) (converted)): 109 ± 19.4 h
Vd [4, 10]: 21.6 ± 1.32 L/kg
Cmax [4, 11]: 1730 ± 380 ng/mL
bioavailability [4, 11]: 4.6%
half-life ([4]; po, 20 mg/kg, Oral (Dose: 20 mg/kg), non-compartmental analysis, read-out: T1/2 (elimination half-life) (converted)): 8.21 h
Cmax ([4]; po, 20 mg/kg, Oral (Dose: 20 mg/kg), two compartment model): 1670 ± 600 ng/mL
half-life ([4]; po, 20 mg/kg, Oral (Dose: 20 mg/kg), two compartment model, read-out: T1/2abs (absorption half-life) (converted)): 0.14 ± 0.02 h
half-life ([4]; po, 20 mg/kg, Oral (Dose: 20 mg/kg), two compartment model, read-out: T1/2α (distribution half-life) (converted)): 0.33 ± 0.01 h
half-life ([4]; po, 20 mg/kg, Oral (Dose: 20 mg/kg), two compartment model, read-out: T1/2β (elimination half-life) (converted)): 7.05 ± 1.88 h
Cmax [4, 12]: 910 ± 70 ng/mL
bioavailability [4, 12]: 15.7%
half-life ([4]; sc, 10 mg/kg, Subcutaneous (Dose: 10 mg/kg), non-compartmental analysis, read-out: T1/2 (elimination half-life) (converted)): 36.8 ± 2.87 h
Cmax ([4]; sc, 10 mg/kg, Subcutaneous (Dose: 10 mg/kg), two compartment model): 970 ± 50 ng/mL
half-life ([4]; sc, 10 mg/kg, Subcutaneous (Dose: 10 mg/kg), two compartment model, read-out: T1/2abs (absorption half-life) (converted)): 0.376 ± 0.01 h
half-life ([4]; sc, 10 mg/kg, Subcutaneous (Dose: 10 mg/kg), two compartment model, read-out: T1/2α (distribution half-life) (converted)): 1.66 ± 0.65 h
half-life ([4]; sc, 10 mg/kg, Subcutaneous (Dose: 10 mg/kg), two compartment model, read-out: T1/2β (elimination half-life) (converted)): 51.5 ± 16.1 h
AUC0-∞ ([4]; Intravenous (Dose: 2 mg/kg), non-compartmental analysis): 10.3 ± 1 mg/L/h
A (coefficient of α-phase) [4, 13]: 2.51 ± 0.56 mg/L
AUC0-∞ [4, 13]: 15.7 ± 1.96 mg/L/h
B (coefficient of β-phase) [4, 13]: 0.09 ± 0.01 mg/L
AUC0-∞ [4, 14]: 4.73 ± 0.97^a mg/L/hr
Cl- (total body clearance) [4, 14]: 4.72 ± 1.20 L/kg/h
VD (volume of distribution) [4, 14]: 63.9 ± 34.3 L/kg
Fabs (absolute bioavailability) ([4]; Oral (Dose: 20 mg/kg), non-compartmental analysis, 20 mg/kg): 4.59 ± 1.33%
A (coefficient of α-phase) [4, 15]: 4.29 ± 0.42 mg/L
AUC0-∞ [4, 15]: 4.27 ± 1.69 mg/L/h
B (coefficient of β-phase) [4, 15]: 0.37 ± 0.24 mg/L
Cl (total body clearance) [4, 15]: 92.3 ± 36.3 mL/min/kg
VD (volume of distribution) [4, 15]: 34.8 ± 21.8 L/kg
AUC0-∞ [4, 16]: 8.14 ± 0.23^c mg/L/hr
Cl- (total body clearance) [4, 16]: 1.23 ± 0.04^c L/kg/hr
VD (volume of distribution) [4, 16]: 65.0 ± 3.77^c L/kg
A (coefficient of α-phase) [4, 17]: 2.05 ± 0.57 mg/L
AUC0-∞ [4, 17]: 8.68 ± 0.92 mg/L/h
B (coefficient of β-phase) [4, 17]: 0.08 ± 0.02 mg/L
Cl (total body clearance) [4, 17]: 19.5 ± 2 mL/min/kg
VD (volume of distribution) [4, 17]: 45.8 ± 5.95 L/kg
Bound fraction (%) ± SD (plasma protein; Concentration 5 μg/mL): 91.0 ± 0.6%
Bound fraction (%) ± SD (plasma protein; Concentration 25 μg/mL): 96.3 ± 1.4%
Bound fraction (%) ± SD (plasma protein; Concentration 50 μg/mL): 98.3 ± 0.3%
MPC (Minimum Protective Concentration) V583 (E. faecalis V583 [5]): 4e-12 µg/mL
MIC ([6]; PA14, read-out: MIC30 P. aeruginosa): < 2.5 µg/mL
inhibition at 2.5 µg/mL ([6]; PA14, read-out: inhibition of P. aeruginosa): ~80%
MIC (E. faecalis OG1RF [7]): 2.5 to 5 µg/mL (≈ 9.67 to 19.3 µM)
Minimum Inhibitory Concentration MIC30 V583 (E. faecalis V583 [8]): 0.25 to 0.50 µg/mL
MIC (E. faecalis V583 [8]; Enterococcus faecalis, V583, read-out: Minimum Inhibitory Concentration MIC30 V583): 0.25 to 0.5 µg/mL (≈ 0.967 to 1.93 µM)
